We go through ten compounds from ChEMBL document CHEMBL1201862, “PubChem BioAssay data set” (2004).

Some test systems named below: CAKI-1; A549; UO-31; Hs-578T; HOP-92; DU-145; SW-620; SN12C; TK-10; SF-268; RPMI-8226; HT-29; OVCAR-5; HCT-116; COLO 205; A498; BT-549; PC-3; SF-295.
Common to all, as to test: DTP human tumour cell line panel, 48 h

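Compound exposure: 48 hours, 5 concentrations, 96-well plates. The concentration for 50% growth inhibition is given as GI50.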 Activity calls are given as the source filed them. Cut-off read from the data, not from the text of the source: active = GI50 up to about 1.1 µM and inactive = higher.

`COc1c2ccccc2c(OC)c2nc(C)ccc12`: the GI50 with CAKI-1 was > 94 µM (inactive); in the experiment on A549, > 100 µM (inactive); in the experiment on UO-31, > 100 µM (inactive); in the experiment on Hs-578T, > 100 µM (inactive); in the experiment with HOP-92, > 100 µM (inactive); with DU-145, > 100 µM (inactive). In addition, the GI50 in the experiment on SW-620 was > 100 µM (inactive); in the experiment with SN12C, > 100 µM (inactive); in the experiment with TK-10, > 100 µM (inactive); with SF-268 it was > 100 µM (inactive); in the experiment with RPMI-8226, 81.8 µM (inactive); in the experiment on HT-29, 49.3 µM (inactive). Besides, the GI50 in the experiment on OVCAR-5 was > 100 µM (inactive); with HCT-116, > 80.2 µM (inactive); in the experiment with COLO 205, 56.1 µM (inactive); in the experiment with A498, > 100 µM (inactive); with BT-549 it was > 79.1 µM (inactive); in the experiment with PC-3, > 91 µM (inactive). For the same compound, in the experiment with SF-295, the GI50 was > 100 µM (inactive).
Regarding `CCOC(=O)c1cc2nc3ccccc3c(=O)n2c2ccccc12`, the GI50 in the experiment with CAKI-1, in the experiment with A549, in the experiment on UO-31, with Hs-578T, in the experiment with HOP-92 and in the experiment with DU-145 was > 10 µM (inactive) in each case. Besides, the GI50 with SW-620, with SN12C, with TK-10, with SF-268, with RPMI-8226 and in the experiment on HT-29 was > 10 µM (inactive) throughout. In addition, the GI50 in the experiment with OVCAR-5, with HCT-116, in the experiment with COLO 205, in the experiment on A498, in the experiment on BT-549 and with PC-3 was > 10 µM (inactive) throughout. Moreover, the GI50 with SF-295 is > 10 µM (inactive).
For the compound `COC(=O)[C@H](Cc1ccccc1)NC(=O)N1CCN(C(=O)N[C@@H](Cc2ccccc2)C(=O)OC)CCN(C(=O)N[C@@H](Cc2ccccc2)C(=O)OC)CC1`, the GI50 in the experiment with CAKI-1, in the experiment on A549, in the experiment with UO-31, in the experiment with Hs-578T, in the experiment on HOP-92 and in the experiment with DU-145 was > 100 µM (inactive) each time. In addition, the GI50 in the experiment with SW-620, in the experiment on SN12C, in the experiment with TK-10, in the experiment on SF-268, in the experiment on RPMI-8226 and in the experiment with HT-29 was > 100 µM (inactive) throughout. Moreover, the GI50 in the experiment with OVCAR-5, with HCT-116, in the experiment with COLO 205, in the experiment with A498, in the experiment with BT-549 and in the experiment on PC-3 was > 100 µM (inactive) in each case. In addition, the GI50 in the experiment with SF-295 was > 100 µM (inactive).
As for `COc1ccccc1N1CCN(CCCCNC(=O)c2ccc([N+](=O)[O-])o2)CC1`, the GI50 in the experiment on CAKI-1 was 13.4 µM (inactive); in the experiment with A549 it was 6.98 µM (inactive); in the experiment on UO-31, 10.4 µM (inactive); in the experiment on Hs-578T it was 15.5 µM (inactive); in the experiment on HOP-92, 16.6 µM (inactive); in the experiment with DU-145, 4.76 µM (inactive). In addition, the GI50 in the experiment with SW-620 is 8.22 µM (inactive); in the experiment on SN12C it was 3.27 µM (inactive); with TK-10 it was 5.9 µM (inactive); with SF-268, 16.7 µM (inactive); in the experiment on RPMI-8226 it was 19.1 µM (inactive); in the experiment with HT-29 it was 2.74 µM (inactive). Moreover, the GI50 with OVCAR-5 was 15.1 µM (inactive); with HCT-116, 10.3 µM (inactive); in the experiment on COLO 205 it was 2.38 µM (inactive); in the experiment on A498, 9.79 µM (inactive); with BT-549, 4.19 µM (inactive); with PC-3, 13.6 µM (inactive). The GI50 in the experiment on SF-295 is 11.6 µM (inactive).
With `COc1ccc2c(c1)CCN=C2Cc1ccccc1CCCl`, the GI50 is 22.1 µM (inactive) in the experiment with CAKI-1; 28.6 µM (inactive) with A549; 16.5 µM (inactive) with UO-31; 62.4 µM (inactive) in the experiment on Hs-578T; 23.7 µM (inactive) in the experiment with HOP-92; 50.5 µM (inactive) with DU-145. Moreover, the GI50 in the experiment on SW-620 was 26.1 µM (inactive); with SN12C, 24.3 µM (inactive); in the experiment with TK-10, 53.2 µM (inactive); in the experiment on SF-268 it was 21.8 µM (inactive); in the experiment on RPMI-8226, 17.6 µM (inactive); in the experiment on HT-29 it was 12.2 µM (inactive). Further, the GI50 in the experiment with OVCAR-5 was 40.5 µM (inactive); in the experiment on HCT-116 it was 11.9 µM (inactive); in the experiment with COLO 205, 17.5 µM (inactive); in the experiment on A498 it was 51.9 µM (inactive); with BT-549, 44.2 µM (inactive); in the experiment on PC-3, 25.8 µM (inactive). Further, the GI50 in the experiment with SF-295 was 20.7 µM (inactive).
In the case of `Cc1cc(C)c(-n2c(C)c(C)c(C#N)c2N)c(C)c1`, the GI50 was 43.3 µM (inactive) in the experiment on CAKI-1; 36.5 µM (inactive) in the experiment with A549; 83.2 µM (inactive) with UO-31; 43.8 µM (inactive) in the experiment with Hs-578T; 19 µM (inactive) in the experiment on HOP-92; 38.1 µM (inactive) in the experiment with DU-145. The GI50 in the experiment with SW-620 is 26.5 µM (inactive); in the experiment on SN12C, 27.2 µM (inactive); with TK-10, 32.4 µM (inactive); with SF-268, 38.6 µM (inactive); in the experiment with RPMI-8226, 18.6 µM (inactive); with HT-29, 30.5 µM (inactive). Moreover, the GI50 was > 100 µM (inactive) in the experiment with OVCAR-5; 18.8 µM (inactive) in the experiment with HCT-116; 19.7 µM (inactive) in the experiment on COLO 205; 29.3 µM (inactive) in the experiment on A498; 34.8 µM (inactive) with BT-549; 25.8 µM (inactive) in the experiment with PC-3. The GI50 in the experiment with SF-295 was 36.4 µM (inactive).
`Oc1ccc2c(c1)-c1c(c3cc(O)ccc3n1CCN1CCOCC1)CC2`: the GI50 with CAKI-1 is 24.9 µM (inactive); with A549, 28.4 µM (inactive); in the experiment with UO-31, 17.5 µM (inactive); in the experiment with Hs-578T, 27 µM (inactive); in the experiment on HOP-92 it was 26.1 µM (inactive); with DU-145, 28.4 µM (inactive). Also, the GI50 in the experiment on SW-620 is 23 µM (inactive); in the experiment on SN12C, 35.3 µM (inactive); in the experiment on TK-10, 41.1 µM (inactive); with SF-268 it was 44.8 µM (inactive); with RPMI-8226 it was 24.7 µM (inactive); in the experiment with HT-29, 26 µM (inactive). The GI50 with OVCAR-5 was 34.8 µM (inactive); in the experiment on HCT-116, 19.1 µM (inactive); in the experiment with COLO 205 it was 17.4 µM (inactive); in the experiment with A498, 21 µM (inactive); in the experiment with BT-549, 14.5 µM (inactive); in the experiment with PC-3 it was 18.4 µM (inactive). The GI50 in the experiment on SF-295 was 20.1 µM (inactive).
Regarding `COC(=O)C1CC23CCCN4CCC5(c6ccccc6N(C=O)C15CC2)C43` (stereo not given), the GI50 in the experiment on CAKI-1, in the experiment with A549, in the experiment with UO-31, in the experiment on Hs-578T, with HOP-92 and in the experiment with DU-145 was > 100 µM (inactive) in each case. In addition, the GI50 in the experiment with SW-620, in the experiment on SN12C, with TK-10, in the experiment with SF-268, in the experiment on RPMI-8226 and in the experiment with HT-29 was > 100 µM (inactive) each time. The GI50 in the experiment on OVCAR-5, in the experiment on HCT-116, with COLO 205, with A498, in the experiment on BT-549 and with PC-3 was > 100 µM (inactive) throughout. The GI50 with SF-295 was > 100 µM (inactive).
On to `Cc1c(/N=N/c2ccc(Cl)cc2)c(-c2ccccc2)n(C2OC(CO)C(O)C(O)C2O)c(=S)c1C#N` (stereo not given), for which the GI50 was 18.1 µM (inactive) with CAKI-1; 17.3 µM (inactive) in the experiment on A549; 19.8 µM (inactive) in the experiment with UO-31; 21.5 µM (inactive) in the experiment with Hs-578T; 14.2 µM (inactive) with HOP-92; 19 µM (inactive) in the experiment with DU-145. The GI50 is 17.6 µM (inactive) in the experiment with SW-620; 16.6 µM (inactive) in the experiment with SN12C; 21.2 µM (inactive) in the experiment with TK-10; 22.2 µM (inactive) with SF-268; 25.2 µM (inactive) in the experiment on RPMI-8226; 16.6 µM (inactive) in the experiment on HT-29. Further, the GI50 in the experiment with OVCAR-5 is 19.2 µM (inactive); with HCT-116, 14.3 µM (inactive); in the experiment with COLO 205, 21.2 µM (inactive); with A498, 7.87 µM (inactive); with BT-549, 16 µM (inactive); with PC-3 it was 10.6 µM (inactive). In addition, the GI50 with SF-295 is 24.9 µM (inactive).
As to `CC(C)(C)OC(=O)NC(CCCCNC(=O)OCc1ccccc1)C(=O)NCCNc1ccc(NCCNC(=O)C(CCCCNC(=O)OCc2ccccc2)NC(=O)OC(C)(C)C)c2c1C(=O)c1ccccc1C2=O` (stereo not given), the GI50 with CAKI-1 is > 100 µM (inactive); in the experiment with A549, > 100 µM (inactive); in the experiment with UO-31 it was > 89.7 µM (inactive); in the experiment on Hs-578T, 4.68 µM (inactive); with HOP-92 it was > 42.3 µM (inactive); in the experiment on DU-145, > 100 µM (inactive). In addition, the GI50 with SW-620 was 70.6 µM (inactive); with SN12C, > 100 µM (inactive); with TK-10 it was > 100 µM (inactive); with SF-268, > 31.8 µM (inactive); in the experiment with RPMI-8226, 1.02 µM (active); in the experiment with HT-29 it was > 100 µM (inactive). Moreover, the GI50 is > 100 µM (inactive) with OVCAR-5; 24.5 µM (inactive) with HCT-116; 27.2 µM (inactive) with COLO 205; > 100 µM (inactive) in the experiment on A498; > 71 µM (inactive) in the experiment on BT-549; > 100 µM (inactive) in the experiment with PC-3. Also, the GI50 in the experiment on SF-295 is > 93.8 µM (inactive).
